Measured values taken from article PMC3839997, “Identification of Glucose Transporters in Aspergillus nidulans” (PLoS ONE, 2013).

Tests used:
HxtC [1] = target: T1, HxtC (Aspergillus nidulans, UniProt C8VDD8); experiment: competition of […]glucose uptake in S. cerevisiae EBY.VW4000 expressing the transporter; type: cell-based; settings: tenfold excess of unlabelled sugar over [14C]glucose
T1 construct: gene ANIA_10891; full-length ORF from cDNA, untagged (with stop codon), expressed from pRH195 in S. cerevisiae EBY.VW4000; strain A4 given for the GFP construct

HxtC [2] = target: T1, HxtC; experiment: […]glucose uptake in S. cerevisiae EBY.VW4000 expressing the transporter; type: cell-based; settings: labelled compound; 30 °C; proton symport

T1 sequence (C8VDD8 entry or part of it): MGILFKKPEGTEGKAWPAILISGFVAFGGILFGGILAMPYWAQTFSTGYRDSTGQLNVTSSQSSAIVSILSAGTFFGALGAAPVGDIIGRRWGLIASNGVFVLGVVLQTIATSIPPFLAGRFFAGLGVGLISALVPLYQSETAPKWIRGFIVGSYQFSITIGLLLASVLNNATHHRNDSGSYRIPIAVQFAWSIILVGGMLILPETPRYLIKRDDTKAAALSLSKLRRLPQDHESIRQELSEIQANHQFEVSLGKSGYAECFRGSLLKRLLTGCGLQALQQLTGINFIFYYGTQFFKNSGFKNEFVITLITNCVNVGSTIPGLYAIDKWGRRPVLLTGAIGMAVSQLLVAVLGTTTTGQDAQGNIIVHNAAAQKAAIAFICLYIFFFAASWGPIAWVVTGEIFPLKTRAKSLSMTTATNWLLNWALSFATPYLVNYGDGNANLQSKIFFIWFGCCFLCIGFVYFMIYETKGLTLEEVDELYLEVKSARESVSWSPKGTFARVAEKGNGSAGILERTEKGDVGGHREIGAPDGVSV

| SMILES | % inhibition (HxtC [1]) | [14C]glucose uptake in S. cerevisiae EBY.VW4000 expressing the transporter (HxtC [2]) |
| --- | --- | --- |
| OCC1(O)OC[C@@H](O)[C@@H](O)[C@@H]1O (some centres unmarked) [fructose] | unlabeled maltose, galactose, fructose and mannose were also able to inhibit to different levels |  |
| OC[C@H]1OC(O)[C@H](O)[C@@H](O)[C@H]1O (some centres unmarked) [galactose] | unlabeled maltose, galactose, fructose and mannose were also able to inhibit to different levels |  |
| OC[C@H]1OC(O)[C@H](O)[C@@H](O)[C@@H]1O (some centres unmarked) [glucose] |  | these data suggested that HxtB, HxtC, and HxtE mediated glucose transport via active proton symport |
| OC[C@H]1O[C@H](O[C@H]2[C@H](O)[C@@H](O)C(O)O[C@@H]2CO)[C@H](O)[C@@H](O)[C@@H]1O (some centres unmarked) [maltose] | unlabeled maltose, galactose, fructose and mannose were also able to inhibit to different levels |  |
| OC[C@H]1OC(O)[C@@H](O)[C@@H](O)[C@@H]1O (some centres unmarked) [mannose] | unlabeled maltose, galactose, fructose and mannose were also able to inhibit to different levels |  |
